This note sets out measurements from ChEMBL document CHEMBL1201862, “PubChem BioAssay data set” (2004).

Test systems include SK-MEL-28; SK-MEL-2; HOP-62; T47D; HT-29; TK-10; CCRF-CEM; SN12C; UACC-62; SF-539; HOP-92; U-251; MOLT-4; OVCAR-3; UO-31; SK-MEL-5; UACC-257; RPMI-8226; IGROV-1; OVCAR-5.
Test in all cases: NCI-60 cell line screen, 48 h

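Test compounds were applied to cells in 96-well plates for 48 hours at 5 doses. GI50 = concentration required for 50% inhibition of growth.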 The source made the active and inactive calls. Cut-off read from the data, not from the text of the source: active = GI50 up to about 1.1 µM and inactive = higher.

Take `Clc1ccc(CCN2CCN(CCCc3ccccc3)CC2)cc1Cl`: the GI50 with SK-MEL-28 is 18.7 µM (inactive); in the assay with SK-MEL-2, 18.8 µM (inactive); with HOP-62 it was 18.5 µM (inactive); in the assay with T47D, 17.2 µM (inactive); in the assay with HT-29, 13.2 µM (inactive); in the assay on TK-10 it was 16.2 µM (inactive). In addition, the GI50 in the assay with CCRF-CEM was 33.3 µM (inactive); in the assay with SN12C it was 16 µM (inactive); in the assay with UACC-62, 16.8 µM (inactive); in the assay on SF-539 it was 17.8 µM (inactive); in the assay with HOP-92, 11.3 µM (inactive); with U-251, 17.4 µM (inactive). Also, the GI50 in the assay on MOLT-4 is 29.6 µM (inactive); with OVCAR-3, 16.4 µM (inactive); in the assay on UO-31, 12.2 µM (inactive); in the assay on SK-MEL-5, 15.8 µM (inactive); in the assay on UACC-257, 17.1 µM (inactive); in the assay with RPMI-8226, 20.9 µM (inactive). In addition, the GI50 with IGROV-1 was 17 µM (inactive); in the assay with OVCAR-5, 16.2 µM (inactive).
For the compound `O=C(OCCN1CCCCC1)C(c1ccccc1)C1(O)CCSCC1` (stereo not given), the GI50 in the assay on SK-MEL-28, in the assay on SK-MEL-2, with HOP-62, in the assay on T47D, in the assay on HT-29 and in the assay with TK-10 was > 100 µM (inactive) throughout. Besides, the GI50 in the assay on CCRF-CEM, with SN12C, with UACC-62, in the assay on SF-539, in the assay on HOP-92 and in the assay with U-251 was > 100 µM (inactive) throughout. Also, the GI50 with MOLT-4, in the assay with OVCAR-3, in the assay with UO-31, in the assay with SK-MEL-5, in the assay on UACC-257 and in the assay with RPMI-8226 was > 100 µM (inactive) throughout. Moreover, the GI50 in the assay with IGROV-1 and in the assay with OVCAR-5 was > 100 µM (inactive) each time.
As for `N#CCC1(c2ccc(Cl)cc2)NC(=O)c2ccccc21` (stereo not given), the GI50 in the assay with SK-MEL-28 is > 100 µM (inactive); in the assay on SK-MEL-2, > 100 µM (inactive); in the assay with HOP-62 it was > 100 µM (inactive); in the assay with T47D it was > 100 µM (inactive); with HT-29 it was > 100 µM (inactive); in the assay with TK-10 it was 96.2 µM (inactive). The GI50 with CCRF-CEM, in the assay with SN12C, with UACC-62, in the assay with SF-539, in the assay with HOP-92 and in the assay with U-251 was > 100 µM (inactive) each time. Also, the GI50 in the assay with MOLT-4, in the assay on OVCAR-3, in the assay with UO-31, in the assay on SK-MEL-5, in the assay on UACC-257 and with RPMI-8226 was > 100 µM (inactive) throughout. For the same compound, the GI50 in the assay with IGROV-1 and with OVCAR-5 was > 100 µM (inactive) each time.
With `COc1cccc(/C=C/c2cnc3ccccc3n2)c1OC`, the GI50 with SK-MEL-28 was 44.2 µM (inactive); in the assay on SK-MEL-2, 28.8 µM (inactive); in the assay with HOP-62, 24.7 µM (inactive); in the assay with T47D, 23.2 µM (inactive); in the assay on HT-29 it was 26.4 µM (inactive); with TK-10, 50.5 µM (inactive). The GI50 in the assay on CCRF-CEM is 35.6 µM (inactive); with SN12C, 39.5 µM (inactive); with UACC-62, 28.4 µM (inactive); in the assay on SF-539, 45.7 µM (inactive); in the assay with HOP-92 it was 23.7 µM (inactive); in the assay on U-251, 39.3 µM (inactive). The GI50 in the assay with MOLT-4 was 12.9 µM (inactive); in the assay with OVCAR-3, 37.2 µM (inactive); with UO-31, 34.1 µM (inactive); in the assay with SK-MEL-5, 17.1 µM (inactive); with UACC-257 it was 37.4 µM (inactive); in the assay with RPMI-8226, 41.8 µM (inactive). For the same compound, the GI50 with IGROV-1 is 39.1 µM (inactive); with OVCAR-5, 72.6 µM (inactive).
In the case of `O=[N+]([O-])c1nccn1CCCNCCCn1ccnc1[N+](=O)[O-]`, the GI50 in the assay on SK-MEL-28 is > 100 µM (inactive); in the assay on SK-MEL-2 it was > 100 µM (inactive); in the assay with HOP-62 it was > 100 µM (inactive); with T47D it was > 100 µM (inactive); in the assay on HT-29, 85.9 µM (inactive); in the assay on TK-10, > 100 µM (inactive). For the same compound, the GI50 in the assay on CCRF-CEM, in the assay with SN12C, in the assay with UACC-62, in the assay with SF-539, with HOP-92 and with U-251 was > 100 µM (inactive) throughout. The GI50 in the assay with MOLT-4, with OVCAR-3, in the assay on UO-31, in the assay on SK-MEL-5, in the assay with UACC-257 and in the assay on RPMI-8226 was > 100 µM (inactive) in each case. Also, the GI50 with IGROV-1 and in the assay with OVCAR-5 was > 100 µM (inactive) each time.
`COc1cccc2c(=O)oc(-c3ccc(C(C)(C)C)cc3)nc12`: the GI50 in the assay with SK-MEL-28 was > 100 µM (inactive); in the assay with SK-MEL-2, 44 µM (inactive); in the assay with HOP-62, 48.2 µM (inactive); in the assay with T47D, 80.4 µM (inactive); in the assay on HT-29, 41.7 µM (inactive); in the assay on TK-10 it was > 100 µM (inactive). Moreover, the GI50 in the assay on CCRF-CEM is 33.7 µM (inactive); in the assay on SN12C it was 96.8 µM (inactive); in the assay with UACC-62, > 100 µM (inactive); in the assay on SF-539, > 100 µM (inactive); in the assay with HOP-92, 41.6 µM (inactive); in the assay on U-251, 42.2 µM (inactive). The GI50 in the assay on MOLT-4 is 22.7 µM (inactive); in the assay on OVCAR-3, 29.9 µM (inactive); with UO-31, > 100 µM (inactive); in the assay with SK-MEL-5, 28.8 µM (inactive); with UACC-257 it was > 100 µM (inactive); in the assay with RPMI-8226, 34.3 µM (inactive). The GI50 was 45.1 µM (inactive) in the assay with IGROV-1 and > 100 µM (inactive) with OVCAR-5.
As to `c1ccc2c(c1)Sc1nccc3ccnc-2c13`, the GI50 is 36.9 µM (inactive) in the assay with SK-MEL-28; > 100 µM (inactive) with SK-MEL-2; 35.8 µM (inactive) with HOP-62; 27.7 µM (inactive) in the assay on T47D; 11.9 µM (inactive) in the assay with HT-29; 12.4 µM (inactive) in the assay with TK-10. Moreover, the GI50 with CCRF-CEM was 56.9 µM (inactive); with SN12C it was 39 µM (inactive); in the assay with UACC-62, 23.3 µM (inactive); in the assay on SF-539 it was 47.6 µM (inactive); in the assay with HOP-92, 43.6 µM (inactive); with U-251, 23.9 µM (inactive). The GI50 in the assay on MOLT-4 was 8.26 µM (inactive); with OVCAR-3, > 100 µM (inactive); with UO-31, 7.5 µM (inactive); in the assay with SK-MEL-5, 19.1 µM (inactive); in the assay on UACC-257, 73.6 µM (inactive); in the assay on RPMI-8226 it was 55.5 µM (inactive). The GI50 in the assay on IGROV-1 is 27.7 µM (inactive); in the assay with OVCAR-5, > 100 µM (inactive).
For the compound `CN(C)Cc1c(O)ccc2c1c1c(n2C)C(=O)c2ccccc2C1=O`, the GI50 in the assay with SK-MEL-28 was 4.69 µM (inactive); in the assay with SK-MEL-2, 5.31 µM (inactive); in the assay on HOP-62, 15.1 µM (inactive); in the assay on T47D, 11.7 µM (inactive); in the assay with HT-29 it was 1.4 µM (inactive); in the assay with TK-10, 7.41 µM (inactive). Besides, the GI50 in the assay with CCRF-CEM was 0.492 µM (active); with SN12C, 3.62 µM (inactive); in the assay on UACC-62 it was 3.55 µM (inactive); in the assay on SF-539, 10.3 µM (inactive); with HOP-92 it was 12.6 µM (inactive); in the assay with U-251, 4.52 µM (inactive). The GI50 in the assay with MOLT-4 was 0.544 µM (active); in the assay with OVCAR-3 it was 4.75 µM (inactive); in the assay on UO-31, 4.01 µM (inactive); in the assay on SK-MEL-5, 6.49 µM (inactive); with UACC-257, 5.24 µM (inactive); with RPMI-8226 it was 2.67 µM (inactive). The results for the GI50 in the assay on IGROV-1 and in the assay with OVCAR-5 were 3.73 µM (inactive) and 4.16 µM (inactive), respectively.
Take `CC[C@@]1(O)C(=O)OCc2c1c(Cl)c1n(c2=O)Cc2cc3ccccc3nc2-1`: the GI50 is 10.4 µM (inactive) in the assay with SK-MEL-28; 12.3 µM (inactive) in the assay with SK-MEL-2; 0.733 µM (active) in the assay on HOP-62; 1.31 µM (inactive) in the assay on T47D; 2.18 µM (inactive) with HT-29; 19 µM (inactive) in the assay with TK-10. Further, the GI50 in the assay on CCRF-CEM is 0.372 µM (active); with SN12C it was 2.7 µM (inactive); in the assay with UACC-62 it was 0.528 µM (active); in the assay on SF-539, 2.08 µM (inactive); in the assay on HOP-92 it was 7.62 µM (inactive); with U-251, 1.07 µM (active). Further, the GI50 in the assay on MOLT-4 was 0.327 µM (active); in the assay with OVCAR-3 it was 6.35 µM (inactive); in the assay on UO-31, 1.26 µM (inactive); in the assay with SK-MEL-5, 1.75 µM (inactive); in the assay on UACC-257, 2.39 µM (inactive); in the assay with RPMI-8226, 1.73 µM (inactive). The GI50 was 4.08 µM (inactive) in the assay on IGROV-1 and 5.07 µM (inactive) in the assay with OVCAR-5.
